# From PMC6891331, “Virescenosides from the Holothurian-Associated Fungus Acremonium striatisporum Kmm 4401” (Marine Drugs, 2019)
# Target: urease (Canavalia ensiformis, UniProt P07374)
# Experiment: urease inhibition, ammonia production by indophenol method
# Type: biochemical
# Chain of urease (P07374 whole entry, looked up): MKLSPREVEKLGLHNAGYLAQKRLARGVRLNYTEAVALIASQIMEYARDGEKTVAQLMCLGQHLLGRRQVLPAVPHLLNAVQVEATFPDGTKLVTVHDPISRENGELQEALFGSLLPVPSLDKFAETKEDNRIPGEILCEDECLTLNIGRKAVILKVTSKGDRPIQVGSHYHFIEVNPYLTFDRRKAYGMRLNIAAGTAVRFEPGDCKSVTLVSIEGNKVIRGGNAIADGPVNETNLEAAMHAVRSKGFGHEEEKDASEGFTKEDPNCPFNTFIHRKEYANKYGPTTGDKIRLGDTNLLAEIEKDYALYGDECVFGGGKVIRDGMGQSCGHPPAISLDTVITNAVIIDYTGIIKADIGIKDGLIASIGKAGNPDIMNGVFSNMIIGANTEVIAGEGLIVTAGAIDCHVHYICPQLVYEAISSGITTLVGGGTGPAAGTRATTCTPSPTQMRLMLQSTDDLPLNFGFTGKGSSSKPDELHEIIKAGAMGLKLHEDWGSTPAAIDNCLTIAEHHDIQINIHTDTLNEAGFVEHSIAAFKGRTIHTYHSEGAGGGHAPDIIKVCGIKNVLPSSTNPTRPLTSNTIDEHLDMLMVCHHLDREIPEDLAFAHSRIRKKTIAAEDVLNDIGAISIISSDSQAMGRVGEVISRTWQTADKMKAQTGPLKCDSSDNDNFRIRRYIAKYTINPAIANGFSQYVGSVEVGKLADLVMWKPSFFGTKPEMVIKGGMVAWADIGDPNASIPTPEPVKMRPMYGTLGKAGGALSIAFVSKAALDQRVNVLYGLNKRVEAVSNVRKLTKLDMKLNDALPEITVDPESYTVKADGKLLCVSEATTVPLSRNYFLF
row,Compound,IC50 [µM]
1,"NC(N)=S [Thiourea, reference compound]",23
2,"C=CC1(C)CCC2C(=CCC3C2(C)CC(O)C(O)C3(C)CO)C1 (stereo not drawn) [compound 14, aglycon of virescenoside A]",139
3,"C=CC1(C)CCC2=C(CCC3C2(C)CCC(O)C3(C)CO)C1 (stereo not drawn) [compound 15, aglycon of virescenoside B]",125
